From patent US8058258B2, “Methods for cancer therapy and stem cell modulation” (Agency for Science, Technology and Research, priority 2006, dated 2011)

Experiments:
[1] = tested on: PRC2 components SUZ12, EZH2 and EED; assay: Western blot of PRC2 protein levels after drug treatment; format: cell-based, human; settings: HCT116 or MCF-7 cells, 5 μM, 48 and 72 hours
Protocol: (§1) Cell lines used in these examples were purchased from the American Type Culture Collection (Manassas, Va.). Cells were maintained in DMEM supplemented with 10% fetal bovine serum with glutamine, penicillin, and streptomycin. For drug treatment, cells were seeded the day before the drug treatment. Cells were treated with 5 μM 3-Deazaneplanocin A or 2 μM 5-aza-2'-deoxycytidine (5-AzaC; Sigma) for 72 hours and trichostatin A (TSA; Sigma) at 100 nM for 24 hours. For co-treatment of cells with 5-AzaC and TSA, 5-Aza was added for 48 hours and followed by TSA for 24 hours. Cell pellets were first lysed in RadioImmuno Precipitation Assay (RIPA) buffer, consisting of an aqueous solution of 25 mM Tris-HCl pH 7.6, 150 mM NaCl, 1% Nonidet-P 40 (NP-40), 1% sodium deoxycholate and 0.1% sodium dodecylsulfate (SDS), before further sonicated using a tissue homogeniser to release all the proteins. Equal amounts of protein were separated on SDS-polyacrylamide gels and transferred to polyvinylidene difluoride (PVDF) membranes. The blots were probed with antibodies against: EED (07-368), SUZ12 (07-379), SUV39H1 (07-550), BMI1 (05-637), tri-methylated H3-K27 (07-449), tri-methylated H3-K9 (07-442) and Acetyl-Histone H3 (06-599), and were purchased from Upstate. EZH2 (AC22) and Histone H3 (3H1) were from Cell Signaling. […]

[2] = tested on: histone H3 methylation at lysine 9 (H3-K9); assay: Western blot of histone H3 lysine 9 methylation; format: cell-based, human; settings: HCT116 or MCF-7 cells, 5 μM, 48 and 72 hours
Protocol: as §1

DNMT1 or DNMT3B = assay: Western blot of DNMT protein expression; format: cell-based, human; settings: HCT116 or MCF-7 cells, 5 μM, 48 and 72 hours
Protocol: as §1

histone acetylation = assay: Western blot of histone acetylation; format: cell-based, human; settings: HCT116 or MCF-7 cells, 5 μM, 48 and 72 hours
Protocol: as §1

MB-468 cells = assay: Cell death / apoptosis by PI staining and flow cytometry; format: cell-based, human
Protocol: FIG. 3A depicts the detection of cell death of a variety of cancer cells upon exposure to 3-deazaneplanocin (DZNep) compared to untreated controls cells (DMSO=dimethyl sulfoxide). Breast cancer MCF-7 and MB-468 cells, colorectal HCT116, RKO and SW480 cells were treated with 5 μm 3-deazaneplanocin for 48 and 72 h, and cell death was detected by means of propodium iodide (PI) staining and flow cytometry analysis. Shown is the average of three independent experiments.
FIG. 6A depicts an analysis of the breast cancer cell lines MCF-7, MB-468, SK-BR-3, MB-231, T47D and BT549 for an apoptotic effect of 5 μM 3-deazaneplanocin over a time frame of 120 hours. Cell death was measured by FACS analysis. Data presented are the average of three independent experiments.
Cell lines used in these examples were purchased from the American Type Culture Collection (Manassas, Va.). Cells were maintained in DMEM supplemented with 10% fetal bovine serum with glutamine, penicillin, and streptomycin. For drug treatment, cells were seeded the day before the drug treatment. […]
It was observed that 3-deazaneplanocin at 5 μM could induce 25% cell death at 48 hours and 45% of cell death at 72 hours, as determined by propodium iodide (PI) staining and flow cytometry analysis (FIG. 3A). […]

MCF-7 and HCT116 cells = assay: Mitochondrial membrane potential by JC-1 staining and flow cytometry; format: cell-based; settings: JC-1, flow cytometry
Text: FIG. 3B depicts the detection of mitochondrial membrane potential of HCT116 cells by staining with the dye 5,5′,6,6′-tetrachloro-1,1′,3,3′-tetraethyl-benzamidazolocarbocyanin iodide (JC-1).
FIG. 3C compares the apoptosis in HCT116 cells (right hand side, data of FIG. 3B) to the apoptosis in MCF-7 cells (left hand side).
Cells were trypsinised and washed with PBS and fixed in 70% ethanol and processed for propidium iodide staining and FACS analysis. For the caspase 3 activity assay and mitochondrial membrane potential detection, cells were stained with anti-active caspase 3 and JC-1, respectively, according to the manufacturer's instructions (BD Bioscience).
To elucidate the mechanisms by which 3-deazaneplanocin induces cell death, flow cytometry was used to analyse the loss of mitochondrial membrane potential (ΔΨm) in MCF-7 and HCT116 cells after 3-deazaneplanocin treatment (FIGS. 3B & 3C).

[3] = explored for antiviral treatment; cited from earlier work

## Nc1nccc2c1ncn2C1C=C(CO)C(O)C1O (centres unmarked) [3-deazaneplanocin, 5-(4-amino-1H-imidazo[4,5-c]pyridin-1-yl)-3-(hydroxymethyl)-3-cyclopentene-1,2-diol]
[1]
  protein levels of PRC2 components SUZ12, EZH2 and EED: dramatic decrease
[2]
  histone H3 methylation at lysine 9 (H3-K9): not affected
DNMT1 or DNMT3B
  DNMT1 or DNMT3B protein expression: did not cause a change
Histone acetylation
  histone acetylation: did not affect
MB-468 cells; MB-468, 5 μM, time course to 120 hours
  sensitivity to 3-deazaneplanocin-induced cell death: highly susceptible
MB-468 cells; breast cancer MB-468 cells, 5 μM
  cell death: obvious cell death
MCF-7 and HCT116 cells
  loss of mitochondrial membrane potential (ΔΨm): marked increase in the percentage of cells with lower ΔΨm
[3]
  toxicity in vivo: minimal toxicity
